Patent publication US12364786B2, “Polymer particles” (Terumo Corporation, priority 2016, dated 2025)

Assay: In vitro elution of pharmaceutical agents from particles (Sotax USP 4 dissolution apparatus, HPLC)
Assay type: physicochemical
Description: For in vitro elution testing, drug was loaded on 1 mL samples of microspheres of approximately 400±100 micron diameter. Microsphere aliquots were loaded with 37.5 mg of doxorubicin in water or 50 mg of irinotecan in citrate buffer. Samples were incubated for 18 hours. Drug was eluted from the samples in a Sotax USP 4 dissolution apparatus. Samples were taken at incremental time intervals and analyzed by high performance liquid chromatography. Peak area was recorded (FIG. 4). Percent and concentration of drug eluted were calculated for each time interval.

[1] = 1 mL microsphere sample (approximately 400±100 micron diameter) loaded with 37.5 mg doxorubicin in water
[2] = 1 mL microsphere sample (approximately 400±100 micron diameter) loaded with 50 mg irinotecan in citrate buffer

Structure (SMILES) | amount of drug eluted over the first day [1] [mg] | percent of drug eluted over the first day [1] [%] | amount of drug eluted over the first day [2] | percent of drug eluted over the first day [2] [%]
COc1cccc2c1C(=O)c1c(O)c3c(c(O)c1C2=O)C[C@@](O)(C(=O)CO)C[C@@H]3O[C@H]1C[C@H](N)[C@H](O)[C@H](C)O1 [doxorubicin] | 24.5 | 65 | – | –
CCc1c2c(nc3ccc(OC(=O)N4CCC(N5CCCCC5)CC4)cc13)-c1cc3c(c(=O)n1C2)COC(=O)[C@]3(O)CC [irinotecan] | – | – | over 45 mg | 95
